Data reported in publication PMC3630250 (Clinical cancer research : an official journal of the …, 2013).

Assays:
[1] = system: Balb/c mice; settings: twice daily for 4 days; cited from earlier work
[2] = system: mice; settings: cited from earlier work
[3] = system: IκBα phosphorylation in HEK293 cells; experiment: IκBα phosphorylation after TNFα stimulation; type: cell-based; settings: HEK293, 5 and 10 min after TNFα stimulation

| SMILES | granulocytosis and LPS-induced mortality [1] | toxicity in mice [2] | inhibition of IκBα phosphorylation and degradation at early time points [3] |
| --- | --- | --- | --- |
| COc1c(Cl)cc2c([nH]c3cnccc32)c1NC(=O)c1cccnc1C [ML-120B] | resulted in granulocytosis and LPS-induced mortality | showed toxicity in mice | – |
| NC(=O)Nc1sc(-c2ccc(F)cc2)cc1C(N)=O [TPCA1] | – | showed toxicity in mice | complete inhibition |
